Data taken from ChEMBL document CHEMBL1140991, “Synthesis and testing of peptides for anti-prion activity” (Eur J Med Chem, 2008).
Peptide text beside a SMILES is read from it.

What was measured:
brain [1] = experiment: Antiprion activity against Scrapie prion protein-infected mouse brain cells assessed as remaining PrP-res level at 10 uM after 4 days by Western blotting relative to control; assay type: tissue-based
[2] = target: Major prion protein (Mus musculus) (UniProt P04925); experiment: Inhibition of manganese-induced aggregation in mouse recombinant PrP assessed as PrP-res formation at 100 uM after 30 mins relative to control; parameters: scale not given: the % may be the effect or the level left
brain [3] = experiment: Antiprion activity against Scrapie prion protein-infected mouse brain cells assessed as remaining PrP-res level at 100 uM after 4 days by Western blotting relative to control; assay type: tissue-based
[4] = target: Major prion protein (Mus musculus) (UniProt P04925); experiment: Inhibition of mouse recombinant PrP interaction with scrapie mouse brain PrP-res assessed as PrP-res formation at 100 uM after 30 mins by aggregation assay relative to control

Major prion protein (Mus musculus), sequence (P04925 whole entry): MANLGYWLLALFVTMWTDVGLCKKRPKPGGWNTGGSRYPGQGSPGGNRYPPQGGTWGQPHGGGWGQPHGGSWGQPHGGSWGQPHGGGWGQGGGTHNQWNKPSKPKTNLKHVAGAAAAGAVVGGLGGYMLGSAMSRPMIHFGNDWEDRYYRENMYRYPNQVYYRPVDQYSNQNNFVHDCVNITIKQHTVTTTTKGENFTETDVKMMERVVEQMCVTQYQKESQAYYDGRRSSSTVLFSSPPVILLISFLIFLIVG

| Compound | Remaining PrP-res level (brain [1]) [%] | Activity [2] [%] | Activity (brain [3]) [%] | PrP-res formation relative to control [4] [%] |
| --- | --- | --- | --- | --- |
| CC(C)[C@H](NC(=O)[C@@H](NC(=O)[C@H](C)NC(=O)CNC(=O)[C@@H]1CCCN1C(=O)[C@H](C)NC(=O)[C@H](C)NC(=O)[C@H](C)NC(=O)CNC(=O)[C@H](C)NC(=O)[C@@H](C)N)C(C)C)C(N)=O | 73 | 52 | 5 | 52 |
| CC(C)[C@H](NC(=O)[C@@H](NC(=O)[C@H](C)NC(=O)CNC(=O)[C@H](C)NC(=O)[C@H](C)NC(=O)[C@H](C)NC(=O)[C@H](C)NC(=O)[C@@H]1CCCN1C(=O)[C@H](C)NC(=O)[C@@H](C)N)C(C)C)C(N)=O | 131 | 22 | 14 | 22 |
| CC(C)[C@H](NC(=O)[C@H](C)NC(=O)CNC(=O)[C@@H]1CCCN1C(=O)[C@H](C)NC(=O)[C@H](C)NC(=O)[C@H](C)NC(=O)CNC(=O)[C@H](C)NC(=O)[C@@H](C)N)C(N)=O | – | 54 | 129 | – |
| CC(C)[C@H](NC(=O)[C@H](C)NC(=O)CNC(=O)[C@H](C)NC(=O)[C@H](C)NC(=O)[C@H](C)NC(=O)[C@H](C)NC(=O)[C@@H]1CCCN1C(=O)[C@H](C)NC(=O)[C@@H](C)N)C(N)=O | – | 28 | 148 | – |
| C[C@H](NC(=O)CNC(=O)[C@@H]1CCCN1C(=O)[C@H](C)NC(=O)[C@H](C)NC(=O)[C@H](C)NC(=O)CNC(=O)[C@@H]1CCCN1C(=O)[C@@H](C)N)C(N)=O | – | 89 | 7 | – |
| C[C@H](NC(=O)CNC(=O)[C@@H]1CCCN1C(=O)[C@H](C)NC(=O)[C@H](C)NC(=O)[C@H](C)NC(=O)CNC(=O)[C@H](C)NC(=O)[C@@H](C)N)C(N)=O | – | 27 | 81 | – |
| C[C@H](NC(=O)CNC(=O)[C@@H]1CCCN1C(=O)[C@H](C)NC(=O)[C@H](C)NC(=O)[C@H](C)NC(=O)[C@@H]1CCCN1C(=O)[C@H](C)NC(=O)[C@@H](C)N)C(N)=O | – | 85 | 33 | – |
| C[C@H](NC(=O)CNC(=O)[C@H](C)NC(=O)[C@@H](C)N)C(=O)N[C@@H](C)C(=O)N[C@@H](C)C(=O)N1CCC[C@H]1C(=O)NCC(=O)N1CCC[C@H]1C(N)=O | – | 27 | 88 | – |
| C[C@H](NC(=O)CNC(=O)[C@H](C)NC(=O)[C@@H](C)N)C(=O)N[C@@H](C)C(=O)N[C@@H](C)C(=O)N1CCC[C@H]1C(=O)NCC(N)=O | – | 2 | 108 | 2 |
| C[C@H](NC(=O)CNC(=O)[C@H](C)NC(=O)[C@@H](C)N)C(=O)N[C@@H](C)C(=O)N[C@@H](C)C(=O)N1CCC[C@H]1C(N)=O | – | – | 206 | – |
| C[C@H](NC(=O)CNC(=O)[C@H](C)NC(=O)[C@H](C)NC(=O)[C@H](C)NC(=O)[C@H](C)NC(=O)[C@@H]1CCCN1C(=O)[C@H](C)NC(=O)[C@@H](C)N)C(N)=O | – | 103 | 66 | – |
| C[C@H](NC(=O)[C@@H](C)N)C(=O)N1CCC[C@H]1C(=O)NCC(N)=O | – | 88 | 100 | – |
| C[C@H](NC(=O)[C@@H]1CCCN1C(=O)[C@@H](C)N)C(N)=O | – | 148 | 45 | – |
| C[C@H](NC(=O)[C@H](C)NC(=O)[C@H](C)NC(=O)[C@H](C)NC(=O)[C@@H]1CCCN1C(=O)[C@H](C)NC(=O)[C@@H](C)N)C(=O)NCC(N)=O | – | 46 | 128 | 46 |
| C[C@H](NC(=O)[C@H](C)NC(=O)[C@H](C)NC(=O)[C@H](C)NC(=O)[C@@H]1CCCN1C(=O)[C@H](C)NC(=O)[C@@H](C)N)C(N)=O | – | 2 | 195 | 2 |
| C[C@H](NC(=O)[C@@H]1CCCN1C(=O)[C@H](C)NC(=O)CN)C(=O)O (H-GAPA-OH) | – | 266 | 47 | – |
| C[C@H](NC(=O)CN)C(=O)N1CCC[C@H]1C(N)=O (H-Gly-Ala-Pro-NH2) | – | 111 | 32 | – |
| NCC(=O)N1CCC[C@H]1C(=O)N1CCC[C@H]1C(N)=O (H-Gly-Pro-Pro-NH2) | – | 81 | 25 | – |
| C[C@H](NC(=O)[C@H](C)NC(=O)[C@@H]1CCCN1)C(N)=O (H-Pro-Ala-Ala-NH2) | – | 88 | 51 | – |
| C[C@H](NC(=O)[C@@H]1CCCN1)C(=O)N1CCC[C@H]1C(N)=O (H-Pro-Ala-Pro-NH2) | – | 59 | 156 | – |

| Compound | Remaining PrP-res level (brain [1]) [%] | Activity [2] [%] | Activity (brain [3]) [%] | PrP-res formation relative to control [4] [%] |
| --- | --- | --- | --- | --- |
| C[C@H](NC(=O)[C@@H]1CCCN1C(=O)[C@@H]1CCCN1)C(N)=O (H-Pro-Pro-Ala-NH2) | – | 125 | 10 | – |
| NC(=O)CNC(=O)[C@@H]1CCCN1C(=O)[C@@H]1CCCN1 (H-Pro-Pro-Gly-NH2) | – | 96 | 48 | – |
| H-AAGAAAA-NH2 | – | – | 65 | – |
| H-AAGAAAAG-NH2 | – | 23 | 108 | 23 |
| H-AAGAAAAGA-NH2 | – | 76 | 56 | – |
| H-AAGAAAAGAV-NH2 | – | 57 | 133 | – |
| H-AAGAAAAGAVV-NH2 | 200 | 17 | 34 | 17 |
| H-GAAAPG-NH2 | – | 111 | 124 | – |
| H-GAAAPP-NH2 | – | 148 | 30 | – |
| H-GAAPPG-NH2 | – | 240 | 5 | – |
| H-GAPAPG-NH2 | – | 85 | 52 | – |
| H-GPAAPG-NH2 | – | 48 | 261 | – |
| H-HAAGAAAAGA-NH2 | – | 59 | 39 | – |
| H-HAAGAAAAGAV-NH2 | – | 34 | 74 | – |
| H-HAAGAAAPGA-NH2 | – | 28 | 183 | – |
| H-HAAGAAAPGAV-NH2 | – | 64 | 32 | – |
| H-HAAPAAAAGA-NH2 | – | 93 | 151 | – |
| H-HAAPAAAAGAV-NH2 | – | 38 | 225 | – |
| H-HPAGAAAAGA-NH2 | – | 11 | 23 | 11 |
| H-HPAGAAAAGAV-NH2 | – | 74 | 135 | – |

| Compound | Remaining PrP-res level (brain [1]) [%] | Activity [2] [%] | Activity (brain [3]) [%] | PrP-res formation relative to control [4] [%] |
| --- | --- | --- | --- | --- |
| H-KHAAGAAAAGA-NH2 | – | 102 | 59 | – |
| H-KHAAGAAAAGAVV-NH2 | – | 112 | 93 | – |
| H-KHAAGAAAPGA-NH2 | – | 52 | 44 | – |
| H-KHAAGAAAPGAVV-NH2 | 108 | 86 | 7 | – |
| H-KHAAPAAAAGA-NH2 | – | 73 | 70 | – |
| H-KHAAPAAAAGAVV-NH2 | – | 44 | 68 | 44 |
| H-KHPAGAAAAGA-NH2 | – | 19 | 83 | – |
| H-KHPAGAAAAGAVV-NH2 | – | 73 | 68 | – |
| H-MAGAAAAGA-NH2 | – | 104 | 89 | – |
| H-MLGSAPSR-NH2 | – | 1 | 61 | – |
| H-PAGAAAA-NH2 | – | – | 71 | – |
| H-PAGAAAAG-NH2 | 158 | 130 | 10 | – |
| H-PAGAAAAGA-NH2 | – | 71 | 100 | – |
| H-PAGAAAAGAV-NH2 | – | 77 | 112 | – |
| H-PAGAAAAGAVV-NH2 | – | 28 | 132 | 28 |
| H-PAGAAAPGA-NH2 | – | 56 | 79 | – |
| H-PLGSAMSR-NH2 | – | 11 | 45 | – |
| H-VAGAAAAGA-NH2 | – | 84 | 93 | – |
